{"source": "patent US7102000B2", "about": "“Heterocyclic amide derivatives for the treatment of diabetes and other diseases” (Incyte San Diego Inc., priority 2002, dated 2006)", "key": {"KKA^y mice": {"system": "KKA^y mice", "experiment": "Oral treatment of type 2 diabetes in KKA^y mice (serum glucose, triglyceride, cholesterol)", "type": "in vivo, mouse", "conditions": "KKA^y mice, oral once daily, vs control mice, FIGS. 2a–d", "description": "The procedure for this in-vivo assay for anti-diabetes activity was described in detail by Iwatsuka, et al. (1970 General Survey of Diabetic Features of Yellow KK Mice. Endocrinol. Japon. 17: 23–35, incorporated herein in its entirety by reference).\nExperimental Procedures: Six to eight week-old male KKA^y mice (obtained from Jackson Labs of Bar Harbord, Me.) were housed in a fixed 12–12-hr artificial light-dark cycle, and maintained on a standard rodent diet provided ad libitum. Animals were allowed two days to acclimate in this experimental environment prior to the initiation of the study.\nPrior to initiation of treatment with the compounds of the invention, the animals were bled from the tail vein (100–200 μL of whole blood) and serum levels of glucose and triglycerides were measured in duplicate (Trinder kits; Sigma, St. Louis, Mo.). Based on these initial measures, animals were sorted into groups with approximately the same average serum glucose levels. Once sorted, the animals were housed one per cage and provided rodent diet ad libitum. Unless otherwise indicated, compounds were suspended in sesame oil, and administered by oral gavage once daily to animals in a volume of 3 ml/kg/dose.\nTreatment Group A (n=5/group): (See Results in FIG. 2a) • 1) KKA^y vehicle control (sesame oil) • 2) Compound 1 (3 mg/kg) • 3) Compound 1 (10 mg/kg) • 4) Compound 2 (3 mg/kg) • 5) Compound 2 (10 mg/kg)\nTreatment Group B (n=6/group): (See Results in FIG. 2b) • 1) KKA^y vehicle control (sesame oil) • 2) Compound 11 (15 mg/kg)\nTreatment Group C (n=6/group): (See Results in FIG. 2c) • 1) KKA^y vehicle control (sesame oil) • 2) Compound 13 (15 mg/kg)\nTreatment Group D (n=6/group): (See Results in FIG. 2d) • 1) KKA^y vehicle control (CMC) • 2) Compound 25 (3 mg/kg, CMC) Compound 25 was suspended in a solution of carboxymethyl cellulose (CMC; 1% carboxy methyl cellulose in H2O, with 10% polyethelene glycol 400), and administered to animals in a volume of 5 ml/kg/dose.\nTreatment Group E (n=5/group): (See Results in FIG. 2e) • 1) KKA^y vehicle control (10% HPβCD) • 2) Compound 25 (1 mg/kg) • 3) Compound 25 (3 mg/kg) • 4) Compound 25 (10 mg/kg) Compound 25 was dissolved in a 10% hydroxy propyl beta cyclodextrin solution, and administered to animals in a volume of 10 ml/kg/dose.\nSerum glucose, triglyceride and/or cholesterol levels were measured in duplicate. The blood is kept at room temperature to allow coagulation, after which the serum is separated and assayed for glucose, triglyceride and/or cholesterol levels. As shown in FIGS. 2a–2d all of the compounds tested reduced serum glucose and triglyceride levels, some with doses as low as 3 mg/kg when administered once a day."}, "[1]": {"system": "THP-1 cells differentiated into macrophages", "experiment": "Cholesterol efflux assay from macrophage foam cells", "type": "cell-based", "conditions": "1 μM, 24 hr, with 10 μg/ml ApoA-I, compared to non treated cells, FIG. 4", "experimental": "Cholesterol efflux from macrophage foam cells was assayed as described by Sparrow. et al, J. Biol. Chem.,2002, 277, 10021–10027, which is encorporated herein in its entirety by this reference. THP-1 cells obtained from ATCC (Manassas, VI), were cultured in RPMI medium (Sigma, St-Louis, Mo.), containing 10% fetal calf serum (Sigma, St-Louis, Mo.), 0.05 μM 2-mercaptoethanol, 1 mM sodium pyruvate, 2 mM L-glutamine, 100 units/ml penicillin, […] streptomycin and 0.25 μg/ml amphotericin B obtained from Sigma (St-Louis, Mo.). The THP-1 cells were differentiated into macrophages in 24 well tissue culture dishes at a density of 0.5 million cells/well by incubation in the same medium plus 100 nM tetradecanoyl phorbol acetate (Sigma, St-Louis, Mo.), for 3 days.\nAfter differentiation into macrophages, the cells were tested for cholesterol efflux as induced by compound 2 of the invention. Cells were labeled by incubation for 24 hr in fresh growth medium containing [3 H]-cholesterol (10 μCi/ml) (PerkinElmer, Boston, Mass.), and 50 μg/ml acetylated-LDL (Frederick, Md.) and 1% Fetal bovine serum (Sigma, St-Louis, Mo.). […] Media were briefly centrifuged to remove non-adherent cells, and then aliquots of both the supernatant and the dissolved cells were counted by liquid scintillation spectrometry to determine radioactivity.\nCholesterol efflux is expressed as a percentage, calculated as […]"}, "[2]": {"system": "diet-induced hypercholesterolemic Sprague Dawley rats", "experiment": "Diet-induced hypercholesterolemia in wild type Sprague Dawley rats (total, HDL, LDL cholesterol)", "type": "in vivo, rat", "conditions": "Sprague Dawley rats on atherogenic diet, oral once daily, day 5, FIGS. 5a–c", "description": "Experimental Procedure: Six week-old male Sprague Dawley rats (obtained from Harlan of San Diego, Calif.) were housed in a fixed 12—12-hr artificial light-dark cycle, and maintained on a high cholesterol atherogenic diet (Paigen's Diet, obtained from Research Diet Inc. of New Brounswick, N.J.) was provided ad libitum. Animals were allowed six days to acclimate in this experimental environment prior to the initiation of the study.\nPrior to initiation of treatment, the animals were bled from the tail vein (100–200 μL of whole blood) and serum levels of cholesterol were measured in duplicate (Cholesterol Infinity kits; Sigma, St. Louis, Mo.). Based on these initial measures, animals were sorted into groups with approximately the same average total cholesterol levels. Once sorted, the animals were housed three per cage and maintained on Paigen's diet ad libitum. All compounds to be tested were suspended in sesame oil and administered in a final volume of 3 ml/kg. Drug is administered by oral gavage once daily at the beginning of the artificial light cycle. To obtain a base line for lipid measurement, a control group maintained on standart rodent diet is included (lean control).\nTreatment Group A (n=6/group): (See Results in FIG. 5a) • 1) Lean control (Sesame Oil) • 2) Control • 3) Compound 2 (0.3 mg/kg) • 4) Compound 2 (1 mg/kg) • 5) Compound 2 (3 mg/kg)\nTreatment Group B (n=6/group): (See Results in FIG. 5b) • 1) Lean control (Sesame Oil) • 2) Control • 3) Compound 6 (3 mg/kg)\nTreatment Group C (n=6/group): (See Results in FIG. 5c) • 1) Lean control (10% HPβCD) • 2) Control • 3) Compound 25 (1 mg/kg) • 4) Compound 25 (3 mg/kg) • 5) Compound 25 (10 mg/kg) • 6) Compound 25 (15 mg/kg) • The compounds were dissolved in a 10% hydroxy propyl beta cyclodextrin solution, and administered to animals in a volume of 10 ml/kg/dose.\nTo monitor the effect of the tested compounds, animals were bled from the tail vein at the end of the dark cycle on days 0 (for sorting) and day 5 of the treatment period. Fed serum cholesterol levels were measured in duplicate. The blood is kept at room temperature to allow coagulation, after which the serum is separated and assayed for total cholesterol (Infinity reagent, Sigma), HDL cholesterol (using HDL precipitating reagent and infinity reagent, Sigma) and LDL cholesterol (EZLDL kit, Sigma). As shown in FIGS. 5a–c, all compounds tested show significant reduction in total and LDL cholesterol levels and a significant increase in HDL cholesterol levels compared to high fat fed control animals."}}}
{"smiles": "CCN1C(=O)CC(C)(C)c2cc(C)c(-c3cc(/C=C4\\SC(=O)NC4=O)ccc3OC(F)(F)F)cc21", "note": "[Compound 2, 5-[3-(1-Ethyl-4,4,6-trimethyl-2-oxo-1,2,3,4-tetrahydro-quinolin-7-yl)-4-trifluoromethoxy-benzylidene]-thiazolidine-2,4-dione]", "values": [{"measurement": "serum glucose level", "setting": "KKA^y mice", "result": "decrease"}, {"measurement": "serum triglyceride level", "setting": "KKA^y mice", "result": "decrease"}, {"measurement": "cholesterol efflux", "setting": "[1]", "result": "increases"}, {"measurement": "HDL cholesterol", "setting": "[2]", "result": "increasing"}, {"measurement": "LDL cholesterol", "setting": "[2]", "result": "decrease"}, {"measurement": "total cholesterol", "setting": "[2]", "result": "decrease"}]}
